The results in this text go back to ChEMBL document CHEMBL1201862, “PubChem BioAssay data set” (2004).

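Assay format: 96-well plates, 48-hour exposure. GI50 = concentration required for 50% inhibition of growth.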 The source made the active and inactive calls. Cut-off read from the data, not from the text of the source: active = GI50 up to about 1.1 µM and inactive = higher.

Among the test systems are SNB-75; A549; SK-OV-3; CAKI-1; TK-10; SNB-19; Malme-3M; HCT-116; CCRF-CEM; SK-MEL-5; ACHN; NCI-H460; HOP-62; OVCAR-5; IGROV-1; NCI-H522; RPMI-8226; SW-620.
Common to all, as to assay: inhibition of tumour cell growth, NCI panel, 48 h

As for `CCO/C=C/C(C)C1(C(=O)OCC)CCCCC1=O` (stereo not drawn), the GI50 in the assay on SNB-75, in the assay on A549, in the assay on SK-OV-3, with CAKI-1, with TK-10 and in the assay with SNB-19 was > 100 µM (inactive) in each case. Further, the GI50 in the assay with Malme-3M, in the assay with HCT-116, in the assay on CCRF-CEM, in the assay with SK-MEL-5, in the assay with ACHN and with NCI-H460 was > 100 µM (inactive) in each case. The GI50 in the assay with HOP-62 was > 100 µM (inactive); with OVCAR-5, > 100 µM (inactive); in the assay on IGROV-1 it was > 100 µM (inactive); in the assay with NCI-H522, > 100 µM (inactive); in the assay on RPMI-8226 it was 84.1 µM (inactive).
For `Oc1ccc2c3c1OC1C(=NN=C4CCC5(O)C6Cc7ccc(O)c8c7C5(CCN6CC5CC5)C4O8)CCC4(O)C(C2)N(CC2CC2)CCC314` (stereo not drawn), the GI50 in the assay on SNB-75 is 41.6 µM (inactive); in the assay on A549 it was 20.5 µM (inactive); in the assay with SK-OV-3, > 51.3 µM (inactive); with CAKI-1, > 100 µM (inactive); with TK-10, > 46.2 µM (inactive); in the assay with SW-620, 20.8 µM (inactive). For the same compound, the GI50 is 52.7 µM (inactive) in the assay with SNB-19; 19.8 µM (inactive) in the assay with Malme-3M; 16.6 µM (inactive) in the assay on HCT-116; 22.9 µM (inactive) with CCRF-CEM; 19 µM (inactive) in the assay with SK-MEL-5; > 100 µM (inactive) with ACHN. Besides, the GI50 in the assay on NCI-H460 was 21.6 µM (inactive); with HOP-62, 30.3 µM (inactive); in the assay on OVCAR-5, > 100 µM (inactive); with IGROV-1, > 100 µM (inactive); in the assay with NCI-H522, 21.4 µM (inactive); with RPMI-8226 it was 28.8 µM (inactive).
For the compound `O=C1CCCC/C(=C/c2ccccc2)N1`, the GI50 in the assay on SNB-75 was 56.6 µM (inactive); in the assay on A549 it was > 100 µM (inactive); in the assay on SK-OV-3 it was > 100 µM (inactive); with CAKI-1, > 100 µM (inactive); with TK-10, > 100 µM (inactive); in the assay on SW-620 it was > 100 µM (inactive). Moreover, the GI50 in the assay on Malme-3M, with HCT-116, in the assay on CCRF-CEM, in the assay with ACHN, in the assay with NCI-H460 and in the assay with HOP-62 was > 100 µM (inactive) each time. Also, the GI50 in the assay on OVCAR-5, in the assay with IGROV-1, in the assay with NCI-H522 and in the assay with RPMI-8226 was > 100 µM (inactive) in each case.
In the case of `NC1=NN(c2ccccc2)C(=O)C1C(=O)C(=O)Nc1nccs1` (stereo not drawn), the GI50 in the assay with SNB-75 was 62.1 µM (inactive); in the assay on A549 it was > 100 µM (inactive); in the assay with SK-OV-3, > 100 µM (inactive); in the assay on CAKI-1 it was > 100 µM (inactive); with TK-10, > 100 µM (inactive); with SW-620 it was > 100 µM (inactive). The GI50 in the assay on SNB-19, with Malme-3M, with HCT-116, with CCRF-CEM, in the assay on SK-MEL-5 and in the assay on ACHN was > 100 µM (inactive) throughout. In addition, the GI50 in the assay with NCI-H460, with HOP-62, with OVCAR-5, in the assay on IGROV-1, with NCI-H522 and with RPMI-8226 was > 100 µM (inactive) each time.
As to `Cc1ccc2nc(NC(=O)C(=O)C(C(=O)c3ccc4ccccc4c3)C3OC(=O)c4ccccc43)sc2c1` (stereo not drawn), the GI50 was 11.5 µM (inactive) in the assay with A549; 29.9 µM (inactive) in the assay on SK-OV-3; 12.2 µM (inactive) in the assay on CAKI-1; 5.86 µM (inactive) in the assay with SW-620; 6.55 µM (inactive) in the assay on SNB-19; 10.1 µM (inactive) in the assay on Malme-3M. Also, the GI50 was 5.6 µM (inactive) in the assay on HCT-116; 10.5 µM (inactive) in the assay with SK-MEL-5; 16.5 µM (inactive) in the assay on ACHN; 4.43 µM (inactive) in the assay with NCI-H460; 11 µM (inactive) with HOP-62; 11.6 µM (inactive) in the assay with OVCAR-5. The results for the GI50 in the assay with IGROV-1, with NCI-H522 and in the assay on RPMI-8226 were 14.9 µM (inactive), 12 µM (inactive) and 9.25 µM (inactive), respectively.
Regarding `COc1ccc(-c2cc(=O)c3ccccc3[nH]2)c(OC)c1`, the GI50 with SNB-75, in the assay with A549, in the assay with SK-OV-3, in the assay with TK-10, with SW-620 and with SNB-19 was > 100 µM (inactive) in each case. Moreover, the GI50 with Malme-3M, with HCT-116, in the assay on CCRF-CEM, in the assay on ACHN, in the assay on NCI-H460 and in the assay with HOP-62 was > 100 µM (inactive) throughout. The GI50 with IGROV-1, in the assay on NCI-H522 and with RPMI-8226 was > 100 µM (inactive) each time.
As to `CC(=O)O[C@H]1CC[C@@]2(C)C(=CC[C@@H]3C2CC[C@]2(C)Nc4[nH]ncc4CC32)C1` (stereo partly drawn), the GI50 in the assay on SNB-75 was 85.9 µM (inactive); in the assay with A549, 32.2 µM (inactive); with SK-OV-3, > 100 µM (inactive); in the assay with CAKI-1 it was > 100 µM (inactive); with TK-10 it was > 100 µM (inactive); in the assay with SW-620 it was 34.8 µM (inactive). Besides, the GI50 is 25.6 µM (inactive) in the assay with Malme-3M; 16.4 µM (inactive) with HCT-116; 18.2 µM (inactive) in the assay on CCRF-CEM; 19.1 µM (inactive) in the assay with SK-MEL-5; > 100 µM (inactive) in the assay with ACHN; 17.3 µM (inactive) with NCI-H460. Besides, the GI50 is > 100 µM (inactive) with HOP-62, > 100 µM (inactive) in the assay with OVCAR-5, 75.5 µM (inactive) with IGROV-1 and 25.5 µM (inactive) with RPMI-8226.
On to `CC(C)(C)C1CC[C@H]2c3c([nH]c4ccc(Br)cc34)[C@H]3C(=O)N(c4ccccc4)C(=O)[C@H]3[C@H]2C1` (stereo partly drawn), for which the GI50 is 18.5 µM (inactive) in the assay with SNB-75; 27.4 µM (inactive) in the assay with A549; 21.7 µM (inactive) with SK-OV-3; 53.7 µM (inactive) in the assay on CAKI-1; 48.9 µM (inactive) with TK-10; 17.4 µM (inactive) in the assay with SW-620. In addition, the GI50 in the assay on SNB-19 is 23.6 µM (inactive); in the assay on Malme-3M, 31.6 µM (inactive); in the assay on HCT-116, 11.3 µM (inactive); in the assay with CCRF-CEM it was 5.52 µM (inactive); with SK-MEL-5, 28.1 µM (inactive); in the assay on ACHN, > 100 µM (inactive). Besides, the GI50 in the assay with NCI-H460 is 8.09 µM (inactive); with HOP-62, 54 µM (inactive); in the assay on OVCAR-5, > 100 µM (inactive); with IGROV-1, > 100 µM (inactive); in the assay with NCI-H522, 19.4 µM (inactive); with RPMI-8226, 98.2 µM (inactive).
`N#CCC(=O)N/N=C1/C(=O)NC(=O)C(=O)C1c1nc2ccccc2s1` (stereo not drawn): the GI50 with SNB-75, with A549, with SK-OV-3, in the assay with CAKI-1, in the assay with TK-10 and with SW-620 was > 100 µM (inactive) in each case. The GI50 in the assay with SNB-19, with Malme-3M, in the assay on HCT-116, with CCRF-CEM, in the assay with SK-MEL-5 and in the assay on ACHN was > 100 µM (inactive) each time. Also, the GI50 in the assay on HOP-62, in the assay with OVCAR-5, in the assay with IGROV-1, with NCI-H522 and with RPMI-8226 was > 100 µM (inactive) throughout.
For `CCC(C)Cn1c(C)nc2c1C(=O)c1ccccc1C2=O` (stereo not drawn), the GI50 in the assay with SNB-75 is 28.6 µM (inactive); in the assay on A549, 31.5 µM (inactive); in the assay on SK-OV-3, 54.3 µM (inactive); in the assay with TK-10, 41.4 µM (inactive); in the assay with SW-620 it was 38.7 µM (inactive); in the assay on SNB-19 it was 53.6 µM (inactive). Also, the GI50 with Malme-3M is 27.7 µM (inactive); with HCT-116, > 10 µM (inactive); in the assay on CCRF-CEM, 21.4 µM (inactive); in the assay on SK-MEL-5, 15 µM (inactive); with ACHN, 36.1 µM (inactive); with NCI-H460, 14.8 µM (inactive). Moreover, the GI50 in the assay on HOP-62 is 23.8 µM (inactive); in the assay with IGROV-1, 42.5 µM (inactive); with NCI-H522, 30 µM (inactive).
Regarding `CCCCCCCCCCCCOP(N)(=O)OCCCCCCCCCCCC`, the GI50 with SNB-75, in the assay on A549, in the assay on SK-OV-3, in the assay on TK-10, in the assay on SW-620 and with SNB-19 was > 100 µM (inactive) throughout. Also, the GI50 in the assay on Malme-3M, in the assay with HCT-116, in the assay with CCRF-CEM, in the assay with ACHN, in the assay on NCI-H460 and in the assay with HOP-62 was > 100 µM (inactive) throughout. The GI50 with IGROV-1, with NCI-H522 and in the assay on RPMI-8226 was > 100 µM (inactive) each time.
As to `COC(C)(C)[C@H](O)C(O)CC(C)[C@@H]1CCC23CC12CCC1[C@@]2(C)CCC(OC(C)=O)C(C)(C)C2CC(OC2OC(COC(C)=O)C(O)C(O)C2O)[C@]13C` (stereo partly drawn), the GI50 in the assay on SNB-75 was 3.8 µM (inactive); with A549, 2.94 µM (inactive); in the assay on SK-OV-3 it was 9.4 µM (inactive); in the assay on CAKI-1, 2.92 µM (inactive); in the assay on TK-10, 7.23 µM (inactive); in the assay with SW-620 it was 5.35 µM (inactive). Also, the GI50 is 6.84 µM (inactive) with SNB-19; 7.87 µM (inactive) with Malme-3M; 2.26 µM (inactive) with HCT-116; 2.55 µM (inactive) in the assay with CCRF-CEM; 5.48 µM (inactive) in the assay on SK-MEL-5; 3.76 µM (inactive) in the assay on ACHN. Further, the GI50 in the assay with NCI-H460 was 2.88 µM (inactive); in the assay with HOP-62 it was 8.49 µM (inactive); in the assay on OVCAR-5, 2.34 µM (inactive); with IGROV-1, 2.56 µM (inactive); in the assay on NCI-H522, 1.83 µM (inactive); with RPMI-8226, 0.264 µM (active).
